Measurements: PubChem BioAssay AID624404 (Broad Institute, 2012)
Results filed as inconclusive are left out.

tested on: D54 LucT luciferase reporter counterscreen, luminescence, 24 h; assay: reporter signal increase, D54 LucT cells – cell-based, luminescence, cherry pick, counter-screen for N-linked glycosylation inhibitor project, dose response (AID 624404)

Structure (SMILES) | AC35 [nM]
Cc1ccnc(NC(=O)C(Cc2ccccc2)NC(=O)c2ccccc2)c1 (centres undefined) | 335
CCOC(=O)c1c(NC(C)=O)sc2c(OCCN(CC)CC)c(Br)ccc12 | 7.67
CCN(CC)S(=O)(=O)c1cccc(C(=O)OCC(=O)Nc2ccc3c(c2)c2ccccc2n3CC)c1 | 1390
Cc1ccc2c(c1)[C@H]1[C@H](CO2)[C@H](c2ccccc2)[C@]2(C)C(=O)Nc3ccc(Br)cc3C(=O)N12 | 1760
O=C(c1ncn(Cc2ccccc2)c1C(=O)N1CCN(c2ccccc2)CC1)N1CCN(c2ccccc2)CC1 | 1230
Cc1ccc2nc(-c3ccc(SCC(=O)Nc4nnc(C)s4)nc3)[nH]c2c1 | 22.4
COc1ccc2oc(-c3ccccc3[N+](=O)[O-])cc(=O)c2c1 | 174
O=C(Nc1cccc(NC(=O)c2cccs2)c1)c1ccc([N+](=O)[O-])o1 | 1050
Cc1ccc(C(=O)N/C(=C\c2ccco2)C(=O)NCCc2c[nH]c3ccccc23)cc1 | 1740
CC(=O)Nc1ccc(/C=C/C(=O)c2ccc3c(c2)OCCO3)cc1 | 2880
CC(C)(C)c1ccc(C(=O)NNC(=O)c2cccc(Br)c2)cc1 | 5040
COc1ccc2c(c1)OC[C@H]1[C@H]2N2C(=O)c3ccc(F)cc3NC(=O)[C@@]2(C)[C@H]1c1ccccc1 | 1070
CC(C)[n+]1ccn(C2=C([O-])c3ccccc3C(=O)/C2=N\S(=O)(=O)c2ccccc2)c1 | 2370
COc1ccc(/C=C2\SC(=O)N(CCNC(=O)C3=COCCO3)C2=O)cc1 | 854
OCC1OC(n2ccc3c(SCc4ccccc4)ncnc32)C(O)C1O (centres undefined) | 148
Cc1ccnc(NC(=O)CCCOc2cc(=O)n(C)c3ccccc23)c1 | 3220
COc1cc(C(=O)NC2CCN(C)CC2)ccc1Nc1ncc2c(n1)N(C1CCCCC1)CCC(=O)N2C | 30.5
Cn1c(SCC(=O)c2ccc(F)cc2)ncc(C(=O)Nc2ccccc2)c1=O | 1690
Cc1cccc(C(=O)Oc2ccccc2/C=N/NC(=O)c2ccc(NC(=O)C(C)(C)C)cc2)c1 | 2690
C=CCn1c(O)c(C(CC)=NC(C)c2ccccc2)c(=O)[nH]c1=O (centres undefined) | 1080
Cc1ccc2nc(SCC(=O)Nc3ccc4sc(C)nc4c3)c(C#N)cc2c1 | 4.83
Cc1cc(C)nc(/N=C(\N)Nc2ccc(CC(=O)OC(C)C)cc2)n1 | 1680

Structure (SMILES) | AC35 [nM]
CCN1C(=O)CCN(C2CCCC2)c2nc(Nc3ccc(C(=O)NC4CCN(C)CC4)cc3OC)ncc21 | 226
O=C(Nc1ccc2oc(-c3cccnc3)nc2c1)c1ccc([N+](=O)[O-])o1 | 1460
CCn1ncc(C2=NOC(C(=O)NCc3ccccc3)C2)c1C (centres undefined) | 9540
COc1ccc(CNC(=O)c2cccc3c(-c4cccnc4)coc23)cc1OC | 2600
CSc1ccc(/C=N/NC(=O)c2ccccc2Cl)cc1 | 1230
O=C1Cc2c([nH]c3ccc(Br)cc23)-c2ccccc2N1 | 2.52
COc1cc(C(=O)OCCCN2CCCN(CCCOC(=O)c3cc(OC)c(OC)c(OC)c3)CC2)cc(OC)c1OC | 2190
C(=N\Nc1nc2ccccc2[nH]1)/c1c[nH]c2ccccc12 | 718
CC1CN(C(=O)c2ccc(COc3ccc4ccccc4c3)o2)CC(C)O1 (centres undefined) | 306
COc1cc2c(cc1OC)C(c1cccs1)N(C(=O)c1cccc(S(=O)(=O)N(C)C)c1)CC2 (centres undefined) | 640
Oc1ccc(Nc2nc(N3CCCC3)c3ccccc3n2)cc1 | 150
O=C(C=Cc1ccccc1F)c1ccccc1 | 199
Cc1ccc(S(=O)(=O)N2CCN(C(=O)COC(=O)c3cc([N+](=O)[O-])ccc3NCCO)CC2)c(C)c1 | 1460
Cc1ccc(-n2nc(C)c(/C=N/NC(=O)c3cccs3)c2Cl)cc1 | 55.6
COc1ccccc1NS(=O)(=O)c1ccc(-c2cc(C)no2)s1 | 18300
COc1cc(-c2[nH]ncc2CN2CCSCC2)cc(OC)c1OC | 3500
CSc1nnc(-c2sccc2OCc2ccccc2)n1C | 929
CNC(=O)c1cccn(Cc2cccc(C(F)(F)F)c2)c1=O | 231
Cc1ccnc2nc(C(=O)Nc3cc(Cl)ccc3N3CCOCC3)nn12 | 155
c1ccc(C2=Nn3c(nnc3-c3n[nH]c4c3CCC4)SC2)cc1 | 2250
CCOC(=O)N1CCC(NC(=O)c2ccc3c(c2)N=C(C)c2c(C)ccc(C)c2S3)CC1 | 940
Cc1ccc(-c2nc(NCCN(C)C)c3ccccc3n2)cc1 | 4450

Structure (SMILES) | AC35 [nM]
O=C(COc1ccc(/C=N/NC(=O)c2cc3ccccc3o2)cc1Br)Nc1ccccc1 | 27
N#CC1=C(N)Oc2c(c(=O)sc3ccccc23)C1c1cccnc1 (centres undefined) | 1260
O=C(c1ccc2ncsc2c1)N1CCN(c2cccc(C(F)(F)F)c2)CC1 | 629
CC1CN(C(=O)c2cc(-c3ccc(Cl)s3)nc3ccccc23)CC(C)O1 (centres undefined) | 3320
COc1ccc(NC2=C(C)C(=O)CC2)cc1 | 380
COc1ccc(NC(=O)C2(C)Cc3c(-c4cccc(C(N)=O)c4)ccnc3O2)cc1 (centres undefined) | 3620
O=C(c1cn(Cc2ccccc2)nc1-c1ccccc1)N1CCN(c2ccccn2)CC1 | 984
O=C1Cc2c(-c3ccccc3)cc(-c3cccc(Cl)c3)nc2-c2ccccc2N1 | 5370
COc1cccc(CNC(=O)COC(=O)c2ccc(-c3ccc(O)cc3)cc2)c1 | 3650
CC(C)c1ccc(/C=N/NC(=O)c2ccccc2Cl)cc1 | 247
COc1cc(/C=C(/C(=O)c2cccs2)c2nc3ccccc3[nH]2)cc(OC)c1O | 19.5
Cc1nn(-c2ccccc2)c(Cl)c1/C=N/Nc1nc2ccccc2[nH]1 | 23.5
COC(=O)c1c(NC(=O)CN2C(=O)NC3(CCC(C)CC3)C2=O)sc2c1CCC2 (centres undefined) | 592
Cc1ccc2nsnc2c1NC(=O)c1ccc([N+](=O)[O-])o1 | 571
Oc1ccc(-c2csc(-c3c[nH]c4ccccc34)n2)c(O)c1 | 697
CCN1C(=O)c2cccc3c(S(=O)(=O)Nc4ccccc4OC)ccc1c23 | 896
COc1ccc2c(c1)OC[C@H]1[C@H]2N2C(=O)c3cc(OC)ccc3NC(=O)[C@@]2(C)[C@H]1c1ccccc1 | 1080
CC[C@]12c3[nH]c4cc(CCC(=O)N(C)C)ccc4c3CCN1C(=O)[C@@H](CC(=O)NC/C=C(\C)CCC=C(C)C)C[C@@H]2C(=O)N1CCN(C(=O)c2ccco2)CC1 | 267
O=C(Nc1ncccc1O)c1ccc(C(=O)c2ccccc2)cc1 | 773
COc1cccc(C(NC(C)=O)c2nc(-c3ccccc3C)cs2)c1 (centres undefined) | 678
CC(Nc1nc(-c2cccnc2)nc2ccccc12)c1ccc(F)cc1 (centres undefined) | 3450
Cn1c(=O)cc(OCCCC(=O)NC2CCCC2)c2ccccc21 | 3240

Structure (SMILES) | AC35 [nM]
COc1cccc(C2=NOC(C(=O)NCc3ccc(F)cc3)C2)c1 (centres undefined) | 4170
C=CCNc1nc2cc(-c3ccccc3C)sc2c(=O)n1C | 1110
N#Cc1c(NC(=O)/C=C/c2ccco2)sc2c1CCCC2 | 115
CC(CCc1ccco1)NC(=O)CCc1nnc2ccc(NCc3ccc(Cl)cc3)nn12 (centres undefined) | 1580
COc1ccc(C(=O)n2c(-c3ccco3)nc3ccccc32)cc1 | 934
COc1ccc(-c2oc3cc(O)c(OC)c(O)c3c(=O)c2OC)cc1O | 909
COc1cc(NC(=O)CN2c3cccc4cccc(c34)S2(=O)=O)cc(OC)c1OC | 7530
COc1ccc(-c2cc(C(=O)NCC(c3ccccc3)N(C)C)c3ccccc3n2)cc1OC (centres undefined) | 1100
Cn1cccc1/C=C1\SC(=Nc2cccc(O)c2)NC1=O | 1760
O=c1[nH]c(=O)n([C@H]2C[C@H](O)[C@@H](CO)O2)cc1I | 4150
Cc1ccc2c(c1)NC(=O)[C@@]1(C)[C@@H](c3ccccc3)[C@H]3COc4ccccc4[C@@H]3N1C2=O | 371
Cc1ccc(-n2c(SCC(=O)NCCC3=CCCCC3)nc3n[nH]c(C)c3c2=N)cc1Cl | 39.9
CN(C)C(CNC(=O)CSc1nc2sc3c(c2c(=O)n1C)CCCC3)c1ccccc1 (centres undefined) | 682
CC(C)n1cc(NC(=O)c2cc(-c3ccccc3)on2)cn1 | 568
C#CCCOC(=O)N1C2=NC(C(=O)OC)=C(C(=O)OC)[C@@H]3N(C)c4ccccc4[C@]23C[C@H]1C(=O)OC | 934
COc1ccc(OC)c2nc3c(C(=O)NCCN(C)C)cccc3nc12 | 384
Cc1cccc(/C=N\Nc2cn[nH]c(=O)c2Cl)c1 | 163
COc1ccc(-n2c(NNC(C)=O)nc3sc4c(c3c2=O)CCCC4)cc1 | 1860
CNC(=O)c1cccc(NC(=O)c2ccccc2OCc2ccccc2)c1 | 454
O=C(Nc1ccccc1O)c1ccc(NC(=O)C2CC2)cc1 | 432
CCNc1oc(/C=C/c2ccc(OCC)cc2)nc1C#N | 940
CC1(C)Cc2c(c(N3CCOCC3)nc3snc(N)c23)CO1 | 1200

Structure (SMILES) | AC35 [nM]
CC(CC(=O)Nc1ccc2c(c1)c(=O)n(C)n2-c1cccs1)c1ccccc1 (centres undefined) | 7420
O=S(=O)(Cc1ccc(Cl)cc1Cl)c1ccc(Cl)cc1 | 1490
COc1cc(-c2nc(-c3ccccc3)c(-c3cccs3)[nH]2)cc(OC)c1OC | 7050
O=C(NCCc1ccccc1)C1c2ccccc2C(=O)N1Cc1cccs1 (centres undefined) | 1400
Cc1ccc2nc(Cl)c(/C=C/C(=O)c3ccco3)cc2c1 | 1530
Nc1c(C(=O)c2ccccc2)sc2nsc(SCCN3CCOCC3)c12 | 57.8
Cn1cccc1/C=C1\SC(=Nc2ccccc2)NC1=O | 473
CCOc1cc(C(=O)Nc2ccc(N3CCOCC3)cc2)cc(Br)c1OC | 3660
O=C(Nc1cccc(-c2cn3ccccc3n2)c1)c1cccc(Cl)c1 | 2150
OCCCCCN=c1cc(-c2ccccc2)oc2ccc(Cl)cc12 | 2190
Clc1ccc(CSc2cnnc3ccccc23)cc1Cl | 2090
CC(=O)Nc1ccc(CC(=O)NCCC(c2ccccc2)c2ccccc2)cc1 | 7670
COc1ccc(Sc2nnc(Cc3ccccc3)c3ccccc23)cc1 | 4370
COC(=O)c1ccc(C(=O)NC2CC(C)(C)Cc3c2cnn3-c2ccc(F)cc2)nc1 (centres undefined) | 3950
CCc1ccc(C(=O)Nc2ccc3c(c2)n(C)c(=O)n3C)cc1 | 2630
CN(C)c1ccc(/C=N/NC(=O)c2ccccc2Cl)cc1 | 119
COc1ccc(/C=N/NC(=O)c2cccc(NC(=O)c3ccccc3Cl)c2)cc1 | 495
COc1ccc(NC(=O)C2Cc3c(-c4cccc(NC(C)=O)c4)ccnc3O2)cc1OC (centres undefined) | 1830
Cc1cc(C)c2c(N)c3cccc(C)c3nc2n1 | 5820
CCOc1ccc2c(c1)OC(c1ccc(OC)cc1)(C(F)(F)F)NC2=O (centres undefined) | 748
COc1cc(/C=C/C(=O)OCC(=O)NCc2ccc(F)cc2)ccc1O | 88.1
